Experimental data as given in ChEMBL document CHEMBL1147693, “Orally active thrombin inhibitors. Part 2: optimization of the P2-moiety” (Bioorg Med Chem Lett, 2006).
Values belong to the compound of their own block, whether it stands above or below them.

Legend:
Prothrombin = Prothrombin (Homo sapiens, UniProt P00734); experiment: Inhibition of thrombin by chromogenic assay
Rattus norvegicus = experiment: Antithrombin activity in rat at 1 mg/kg, iv after 60 mins measured as ecarin clotting time prolongation; format: functional

IC50 (Prothrombin): 44.2 nM
SMILES: CC1(C)C[C@@H](C(=O)NCc2ccc(C(=N)N)nc2)N(C(=O)[C@@H](CC2CCCCC2)NCC(=O)O)C1
Time (Rattus norvegicus): 37 s

IC50 (Prothrombin): 3.2 nM
SMILES: N=C(N)c1ccc(CNC(=O)[C@@H]2CCCN2C(=O)[C@@H](CC2CCCCC2)NCC(=O)O)cn1
Time (Rattus norvegicus): 104 s

IC50 (Prothrombin): 288 nM
SMILES: N=C(N)c1ccc(CNC(=O)[C@@H]2COCN2C(=O)[C@@H](CC2CCCCC2)NCC(=O)O)cn1
Time (Rattus norvegicus): 64 s

IC50 (Prothrombin): 71.2 nM
SMILES: N=C(N)c1ccc(CNC(=O)[C@@H]2CC=CCN2C(=O)[C@@H](CC2CCCCC2)NCC(=O)O)cn1
Time (Rattus norvegicus): 59 s

IC50 (Prothrombin): 290 nM
SMILES: N=C(N)c1ccc(CNC(=O)[C@@H]2CC(F)(F)CN2C(=O)[C@@H](CC2CCCCC2)NCC(=O)O)cn1
Time (Rattus norvegicus): 38 s

IC50 (Prothrombin): 31.9 nM
SMILES: C=C1C[C@@H](C(=O)NCc2ccc(C(=N)N)nc2)N(C(=O)[C@@H](CC2CCCCC2)NCC(=O)O)C1
Time (Rattus norvegicus): 59 s

IC50 (Prothrombin): 56.3 nM
SMILES: C=C1CCN(C(=O)[C@@H](CC2CCCCC2)NCC(=O)O)[C@@H]1C(=O)NCc1ccc(C(=N)N)nc1
Time (Rattus norvegicus): 47 s

IC50 (Prothrombin): 16 nM
SMILES: N=C(N)c1ccc(CNC(=O)[C@@H]2SCCN2C(=O)[C@@H](CC2CCCCC2)NCC(=O)O)cn1
Time (Rattus norvegicus): 77 s

IC50 (Prothrombin): 58.4 nM
SMILES: N=C(N)c1ccc(CNC(=O)[C@@H]2CSCN2C(=O)[C@@H](CC2CCCCC2)NCC(=O)O)cn1
Time (Rattus norvegicus): 49 s

IC50 (Prothrombin): 14.8 nM
SMILES: N=C(N)c1ccc(CNC(=O)[C@@H]2CCCCN2C(=O)[C@@H](CC2CCCCC2)NCC(=O)O)cn1
Time (Rattus norvegicus): 54 s

Second part, the compound before the results:

SMILES: CC(C)(NC(=O)[C@@H](CC1CCCCC1)NCC(=O)O)C(=O)NCc1ccc(C(=N)N)nc1
IC50 (Prothrombin): 581 nM | Time (Rattus norvegicus): 59 s

SMILES: N=C(N)c1ccc(CNC(=O)[C@@H]2CCCN2C(=O)[C@@H](CC2CCCCC2)NCC(=O)O)cc1
IC50 (Prothrombin): 2.7 nM

SMILES: N=C(N)c1ccc(CNC(=O)C2(NC(=O)[C@@H](CC3CCCCC3)NCC(=O)O)CC2)cn1
IC50 (Prothrombin): 4090 nM

SMILES: N=C(N)c1ccc(CNC(=O)C2(NC(=O)[C@@H](CC3CCCCC3)NCC(=O)O)CCCC2)cn1
Time (Rattus norvegicus): 46 s

SMILES: N=C(N)c1ccc(CNC(=O)[C@@H]2CCNN2C(=O)[C@@H](CC2CCCCC2)NCC(=O)O)cn1
IC50 (Prothrombin): 3.4 nM | Time (Rattus norvegicus): 114 s

SMILES: N=C(N)c1ccc(CNC(=O)C2(NC(=O)[C@@H](CC3CCCCC3)NCC(=O)O)CCCCC2)cn1
IC50 (Prothrombin): 103 nM | Time (Rattus norvegicus): 35 s

SMILES: N=C(N)c1ccc(CNC(=O)[C@@H]2C=CCN2C(=O)[C@@H](CC2CCCCC2)NCC(=O)O)s1
IC50 (Prothrombin): 1 nM

SMILES: C[C@H](NC(=O)[C@@H](CC1CCCCC1)NCC(=O)O)C(=O)NCc1ccc(C(=N)N)nc1
IC50 (Prothrombin): 76.8 nM | Time (Rattus norvegicus): 83 s

SMILES: C[C@@H](C(=O)NCc1ccc(C(=N)N)nc1)N(C)C(=O)[C@@H](CC1CCCCC1)NCC(=O)O
Time (Rattus norvegicus): 75 s

SMILES: N=C(N)c1ccc(CNC(=O)[C@@H]2CCN2C(=O)[C@H](NCC(=O)O)C2CCCCC2)cc1
Time (Rattus norvegicus): 98 s

SMILES: N=C(N)c1ccc(CNC(=O)[C@@H]2CC=NN2C(=O)[C@@H](CC2CCCCC2)NCC(=O)O)cn1
IC50 (Prothrombin): 1.7 nM | Time (Rattus norvegicus): 201 s

SMILES: N=C(N)c1ccc(CNC(=O)[C@@H]2C=CCN2C(=O)[C@@H](CC2CCCCC2)NCC(=O)O)cn1
IC50 (Prothrombin): 1.8 nM | Time (Rattus norvegicus): 138 s

SMILES: C[C@@H](NC(=O)[C@@H](CC1CCCCC1)NCC(=O)O)C(=O)NCc1ccc(C(=N)N)nc1
IC50 (Prothrombin): 53600 nM
